# Read-outs that look alike come from different tables or passages of the source.
# Assays:
# [1] = Plasma pharmacokinetics after single dose oral co-administration; type: in vivo, C57BL/6 mice
# Description: 3-AP, dCKi, VE-822 plasma concentrations were assessed at 0.5, 1, 2, 4, 6, 12 and 24 h following oral administration. Blood samples were collected in heparin-EDTA tubes by the retro-orbital technique and spun down to collect the supernatants. Four parts of methanol were added to plasma samples to precipitate proteins, and the supernatant was collected. Twenty microliter samples were injected onto a reverse phase column equilibrated in water 0.1% formic acid for LC-MS/MS-MRM analysis in positive ion mode. Plasma concentrations were determined by comparison to previously generated standard curves. A population pharmacokinetic modeling (NONMEM v. 7.2) with first-order conditional estimation (FOCE) was used to characterize the Cmax, half-life, and area under the curve (AUC) for 3-AP, dCKi, and VE-822. 3-AP and VE-822 were best described with a one compartment model while dCKi was best described by a two-compartment model. All three drugs were well described with first order absorption and a proportional error model. Clearance and volume were scaled by weight. […]
# Plasma collection and pharmacokinetic assays. Blood was collected in heparin-EDTA tubes by retro-orbital technique at time points 0.25, 1, 6, and 24 h time points from the first set of mice and 0.5, 4, and 12 h from the second set of mice. Blood samples were spun at 2000 x g for 15 min and the plasma supernatants were collected. All plasma samples were frozen down at –20 °C before sample processing. The stock solutions of 3-AP, VE-822, DI-82, 3-AP analog (NSC 266749), VE-821 (Selleckchem), DI-39 were prepared individually by dissolving the appropriate amount of each drug in a known volume of dimethyl sulfoxide (DMSO) to a 10 mM concentration and were stored at –20 °C before use. The 3-AP analog, VE-821 and DI-39 (internal standards) were diluted to 200 nM in methanol to make the internal solution. The calibration standards were prepared by spiking working stock solutions of 3-AP, VE-822 and DI-82 in plasma from untreated mice to give 0.01-10 pmol/µL range. Each 20 µL calibration standard sample was mixed with 60 µL of internal solution (methanol with 200 nM internal standards) and vortexed for 30 s. Following centrifugation at 15,000 x g for 10 min, approximately 60 µL of sample was carefully transferred into HPLC injector vials for LC-MS/MS-MRM analysis.
# Plasma samples were processed the same way as the calibration standard samples. 20 μL samples were injected onto a reverse phase column, (Thermo Scientific Hypersil GOLD column 3.0 µm; 2.1 x 100 mm) equilibrated in water/formic acid, 100/0.1, and eluted (200 μL/min) with an increasing concentration of solvent […]
# The effluent from the column was directed to the Agilent Jet Stream ion source connected to the triple quadrupole mass spectrometer (Agilent 6460) operating in the multiple reaction monitoring (MRM) mode using previously optimized settings. The following drug precursor→fragment ion transitions were used: 3-AP
# CEM T-ALL cells = assay: Cell cycle kinetics by EdU incorporation (flow cytometry) after release from Palbociclib G1 arrest; type: cell-based, human; conditions: for S1 / S2 / S3: synchronous CEM, 12 h after G1 release
# Description: CEM T-ALL cells were synchronized in G1 phase, and then treated as indicated. Cells were pulsed with EdU 1 h before collection at different time points. Cells were fixed 4% paraformaldehyde, permeabilized with perm/wash reagent (Invitrogen), stained with Azide-AF647 (using click-chemistry, Invitrogen; Click-iT EdU Flow cytometry kit, #C10634) and FxCycle-Violet (Invitrogen), and then analyzed flow cytometry (a detailed description is available in the Supplementary Information).
# Cell cycle synchronization. Cells were treated with a CDK4/6 inhibitor, Pablociclib or PD-0332991 (Selleckchem, S1116) for 18 h to synchronize them in the G1 phase. Subsequently, cells were washed twice with PBS containing 2% FBS (Omega Scientific) and released into fresh media. […]
# 0.5 ml of propidium iodide (Calbiochem, #P3566, 1 µg/mL) solution containing Ribonuclease A and 0.3% Triton-X 100. The samples were protected from light before acquisition by flow cytometry.
# Cell cycle kinetics and cell cycle progression by intracellular detection of DNA-incorporated 5-ethynyl-2-deoxyuridine (EdU). CEM T-ALL cells were plated at a density of 0.5 x 10^6 cells/mL. Cells were pulsed with 10 µM EdU (Invitrogen) for 1 h, washed twice with PBS, and released in fresh media containing 5 µM deoxyribonucleosides, with and without drugs. Cells were collected at different time points following release in fresh media, and then fixed with 4% paraformaldehyde and permeabilized using saponin perm/wash reagent (Invitrogen). Cells were then stained with azide-Alexa Fluor 647 by Click reaction according to manufacturer’s protocol (Invitrogen; Click-iT EdU Flow cytometry kit, #C10634). The total DNA content was assessed by staining the samples with FxCycle-Violet (Invitrogen, #F10347) at 1 µg/mL final concentration in PBS containing 2% FBS. To measure the cell cycle progression of a synchronous population of cells, cells were first arrested in the G1 phase following treatment with 1 µM Palbociclib for 18 h, then washed and released in fresh media supplemented with drugs. Before collecting and fixing the cells at different time points, the cells were pulse-labeled with 10 µM EdU for 1 h, and then labeled with azide-Alexa Fluor 647 (Invitrogen; Click-iT EdU Flow cytometry kit). Total DNA content was assessed by staining with FxCycle-Violet (Invitrogen) at 1 µg/mL final concentration in PBS containing 2% FBS. pH2A.X staining. Cells were harvested, fixed and permeabilized with cytofix/cytoperm (BD biosciences, #554722) for 15 min on ice protected from light. Cells were washed, then resuspended in 100 µL 1X Perm/wash buffer (BD Sciences) and incubated for 15 min on ice. The cells were washed, then resuspended in 50 µL with phospho-Histone H2A.X (Ser139) antibody conjugated to fluorochrome FITC (EMD Millipore, #05-636, 1:800 dilutions in perm/wash) for 20 min in the dark at RT. Subsequently, cells were washed and stained with 0.5 mL of DAPI (Invitrogen, #D1306) for DNA content (1 µg/mL in 2% FBS in PBS) before data […]
# Measurement of ssDNA levels using the F7-26 monoclonal antibody. Cells were harvested and fixed with ice-cold methanol:PBS (6:1 v/v) for 24h. Staining with F7-26 monoclonal mouse antibody was performed according to manufacturer’s instructions (EMD Millipore, #MAB3299). Fixed cells were resuspended in 250 µL of formamide and heated in a water bath at 75 °C for 10 min. Cells were then allowed to equilibrate to room temperature and then washed with 2 mL of 1% non-fat dry milk in PBS for 15 min. Subsequently, cells were resuspended in 100 µL of anti-ssDNA Mab F7-26 (EMD Millipore, 1:10 in 5% FBS in PBS) and incubated for 45 min at room temperature. Cells were washed with PBS and stained with 100 µL of fluorescence-conjugated
# [2] = 3-AP 15, VE-822 40, dCKi 50 mg kg−1
# [3] = C57BL/6, mouse, 40 mg/kg, 3-AP 15, VE-822 40, dCKi 50 mg kg−1
"AUC [1, 2]","Cmax [1, 2]","t1/2 [1, 2]",Compound,"Cmax [1, 3]","half-life [1, 3]","AUC ([1]; C57BL/6, mouse, 40 mg/kg, 3-AP 15, VE-822 40, dCKi 50 mg kg−1, read-out: AUC)",fewer cells entered S2 compared to untreated cells (CEM T-ALL cells; 12 h after release from G1 arrest),S1 (CEM T-ALL cells; + dNTP (10 µM)),S2 (CEM T-ALL cells; + dNTP (10 µM)),S3 (CEM T-ALL cells; + dNTP (10 µM)),S1 (CEM T-ALL cells; – dNTP),S2 (CEM T-ALL cells; – dNTP),S3 (CEM T-ALL cells; – dNTP),"percentage of cell population in S2* (late S-phase) (CEM T-ALL cells; 12 h following release from G1 arrest, DI-82 1 µM)"
9.2 ± 1.8 µM·h,2300 ± 700 nM,3.3 ± 1.0 h,NC(=S)N/N=C/c1ncccc1N [3-AP],,,,,,,,,,,
,,,CNCc1ccc(-c2cc(-c3nc(-c4ccc(S(=O)(=O)C(C)C)cc4)cnc3N)on2)cc1 [VE-822],1800 ± 200 nM,17 ± 1 h,55 ± 2 µM·h,16%,43%,52%,1.5%,58%,37%,1%,
63 ± 4 µM·h,6400 ± 700 nM,8.5 ± 3.0 h,COc1ccc(-c2nc([C@@H](C)Sc3nc(N)cc(N)n3)c(C)s2)cc1OCCNS(C)(=O)=O [dCKi],,,,,42%,42%,14%,66%,22%,8.4%,6.1%

# From publication PMC5556071, “ATR inhibition facilitates targeting of leukemia dependence on convergent nucleotide biosynthetic pathways” (Nature Communications, 2017)
